Measurements as given in ChEMBL document CHEMBL4196088, “Induction of cell killing and autophagy by amphiphilic pyrrolidine derivatives on human pancreatic cancer cells” (Eur J Med Chem, 2018).
Calls of active or inactive are those of the source. The rule behind the calls is not given here.

Key:
[1] = test system: PK9; assay: Induction of apoptosis in human PK9 cells assessed as accumulation at sub-G0/G1 phase at 10 uM after 72 hrs by propidium iodide staining based flow cytometry (reference value: 4%); type: functional
[2] = Induction of apoptosis in HPNE cells assessed as accumulation at sub-G0/G1 phase at 10 uM after 72 hrs by propidium iodide staining based flow cytometry (reference value: 6.6%); type: cell-based; conditions: human
[3] = test system: MIA PaCa-2; assay: Induction of apoptosis in human MIAPaCa2 cells assessed as live cells at 20 uM after 48 hrs by Annexin V-FITC/propidium iodide staining based flow cytometry (reference value: 86.79%); type: functional
[4] = test system: PANC-1; assay: Growth inhibition of human PANC1 cells after 72 hrs by XTT assay; type: functional, cell-based; conditions: PANC-1, 72 h
[5] = test system: BXPC-3; assay: Induction of apoptosis in human BxPC3 cells assessed as accumulation at sub-G0/G1 phase harboring pSFFV-Bcl-XL at 20 uM after 72 hrs by propidium iodide staining based flow cytometry (reference value: 1.3%); type: functional
[6] = test system: PK9; assay: Induction of apoptosis in human PK9 cells assessed as accumulation at sub-G0/G1 phase at 20 uM after 48 hrs by propidium iodide staining based flow cytometry (reference value: 3.8%); type: functional
[7] = test system: BXPC-3; assay: Induction of apoptosis in human BxPC3 cells assessed as accumulation at sub-G0/G1 phase at 20 uM after 48 hrs in presence of autophagy inhibitor chloroquine by propidium iodide staining based flow cytometry; type: functional, cell-based
[8] = Induction of apoptosis in HPNE cells assessed as accumulation at sub-G0/G1 phase at 20 uM after 24 hrs by propidium iodide staining based flow cytometry (reference value: 0.6%); type: cell-based; conditions: human
[9] = test system: PANC-1; assay: Induction of apoptosis in human PANC1 cells assessed as accumulation at sub-G0/G1 phase at 20 uM after 48 hrs by propidium iodide staining based flow cytometry (reference value: 0.2 to 2.9%); type: functional
[10] = test system: BXPC-3; assay: Growth inhibition of human BxPC3 cells after 72 hrs by XTT assay; type: functional, cell-based; conditions: BXPC-3, 72 h
[11] = Induction of apoptosis in HPNE cells assessed as accumulation at sub-G0/G1 phase at 10 uM after 24 hrs by propidium iodide staining based flow cytometry (reference value: 0.6%); type: cell-based; conditions: human
[12] = test system: Fibroblast; assay: Induction of apoptosis in human primary fibroblasts at 20 uM after 72 hrs by propidium iodide staining based flow cytometry (reference value: 6.7%); type: cell-based
[13] = Induction of apoptosis in HPNE cells assessed as accumulation at sub-G0/G1 phase at 20 uM after 48 hrs by propidium iodide staining based flow cytometry (reference value: 0.7%); type: cell-based; conditions: human
[14] = test system: BXPC-3; assay: Induction of apoptosis in human BxPC3 cells assessed as accumulation at sub-G0/G1 phase at 20 uM after 48 hrs in presence of autophagy inhibitor 3-MA by propidium iodide staining based flow cytometry; type: functional, cell-based
[15] = test system: Fibroblast; assay: Induction of apoptosis in human primary fibroblasts assessed as accumulation at sub-G0/G1 phase at 10 uM after 24 hrs by propidium iodide staining based flow cytometry (reference value: 4.8%); type: cell-based
[16] = test system: Fibroblast; assay: Induction of apoptosis in human primary fibroblasts at 20 uM after 48 hrs by propidium iodide staining based flow cytometry (reference value: 6.1%); type: cell-based
[17] = test system: BXPC-3; assay: Induction of apoptosis in human BxPC3 cells assessed as accumulation at sub-G0/G1 phase at 20 uM after 48 hrs in presence of autophagy inhibitor bafilomycin A1 by propidium iodide staining based flow cytometry; type: functional, cell-based
[18] = test system: MIA PaCa-2; assay: Induction of apoptosis in human MIAPaCa2 cells assessed as necrotic cells at 20 uM after 24 hrs by Annexin V-FITC/propidium iodide staining based flow cytometry (reference value: 0.63%); type: functional
[19] = test system: MIA PaCa-2; assay: Induction of apoptosis in human MIAPaCa2 cells assessed as early apoptotic cells at 20 uM after 48 hrs by Annexin V-FITC/propidium iodide staining based flow cytometry (reference value: 5.16%); type: functional
[20] = test system: BXPC-3; assay: Induction of apoptosis in human BxPC3 cells assessed as accumulation at sub-G0/G1 phase at 10 uM after 48 hrs by propidium iodide staining based flow cytometry (reference value: 2.8%); type: functional
[21] = test system: PANC-1; assay: Induction of apoptosis in human PANC1 cells assessed as accumulation at sub-G0/G1 phase at 20 uM after 72 hrs by propidium iodide staining based flow cytometry (reference value: 1.6 to 3.2%); type: functional
[22] = test system: BXPC-3; assay: Induction of autophagy in human BxPC3 cells assessed as increase in LC3-2 protein expression at 20 uM after 48 hrs in presence of autophagy inhibitor 3-MA by Western blot analysis; type: functional, cell-based
[23] = test system: BXPC-3; assay: Induction of apoptosis in human BxPC3 cells assessed as accumulation at sub-G0/G1 phase at 20 uM by propidium iodide staining based flow cytometry; type: functional, cell-based; conditions: TDE = time-dependent effect
[24] = test system: SK-BR-3; assay: Growth inhibition of human SKBR3 cells after 72 hrs; type: functional, cell-based; conditions: SK-BR-3, 72 h
[25] = test system: PK9; assay: Induction of apoptosis in human PK9 cells harboring BECN1 shRNA at 20 uM after 24 hrs by Annexin V/7-AAD staining based flow cytometry; type: functional, cell-based
[26] = test system: ACHN; assay: Growth inhibition of human ACHN cells after 72 hrs; type: functional, cell-based
[27] = test system: BXPC-3; assay: Induction of apoptosis in human BxPC3 cells harboring pSFFV-Bcl-XL assessed as accumulation at sub-G0/G1 phase at 20 uM by propidium iodide staining based flow cytometry; type: functional, cell-based; conditions: TDE = time-dependent effect
[28] = test system: Jurkat; assay: Growth inhibition of human Jurkat cells after 72 hrs; type: functional, cell-based
[29] = test system: BXPC-3; assay: Induction of autophagy in human BxPC3 cells assessed as increase in LC3-2 protein expression at 20 uM after 48 hrs in presence of autophagy inhibitor bafilomycin A1 by Western blot analysis; type: functional, cell-based
[30] = test system: HeLa; assay: Growth inhibition of human HeLa cells after 72 hrs; type: functional, cell-based
[31] = test system: PK9; assay: Induction of apoptosis in human PK9 cells harboring ATG7 shRNA at 20 uM after 24 hrs by Annexin V/7-AAD staining based flow cytometry; type: functional, cell-based
[32] = test system: PANC-1; assay: Induction of apoptosis in human PANC1 cells assessed as accumulation at sub-G0/G1 phase at 20 uM by propidium iodide staining based flow cytometry; type: functional, cell-based; conditions: TDE = time-dependent effect
[33] = test system: NCI-H460; assay: Growth inhibition of human NCI-H460 cells after 72 hrs; type: functional, cell-based; conditions: NCI-H460, 72 h

**Q.** For `CCCCCCCCCCCCCCCCCCOCC(COP(=O)([O-])OCC[N+](C)(C)C)OC` (configuration not stated) [EDELFOSINE], which Activity [1] is on record?
**A.** The Activity was 10.3%.

**Q.** And the Activity [2]?
**A.** Its Activity is 4.8%.

**Q.** And the Activity [3]?
**A.** Its Activity is 2.49%.

**Q.** And the IC50 [4]?
**A.** The IC50 was 25.7 µM.

**Q.** What about the Activity [5] of the same compound?
**A.** The Activity was 2.8%.

**Q.** And the Activity [6]?
**A.** Its Activity is 11.2%.

**Q.** And the Activity [7]?
**A.** The Activity was “Active”.

**Q.** What about the Activity [8] of the same compound?
**A.** The Activity was 2.8%.

**Q.** And the Activity [9]?
**A.** Its Activity is 16.2%.

**Q.** And the IC50 [10]?
**A.** The IC50 was 18.8 µM.

**Q.** What about the Activity [11] of the same compound?
**A.** The Activity was 1.9%.

**Q.** And the Activity [12]?
**A.** Its Activity is 9.8%.

**Q.** And the Activity [13]?
**A.** Its Activity is 7.3%.

**Q.** And the Activity [14]?
**A.** Its Activity is “Active”.

**Q.** What about the Activity [15] of the same compound?
**A.** Its Activity is 5.2%.

**Q.** What about the Activity [16] of the same compound?
**A.** Its Activity is 8.6%.

**Q.** What about the Activity [17] of the same compound?
**A.** The Activity was “Active”.

**Q.** And the Activity [18]?
**A.** Its Activity is 7.47%.

**Q.** What about the Activity [19] of the same compound?
**A.** The Activity was 49.78%.

**Q.** What about the Activity [20] of the same compound?
**A.** The Activity was 16.5%.

**Q.** And the Activity [21]?
**A.** Its Activity is 23.2%.

**Q.** Which Activity [1] does the source give for `CCCCCC/C=C\CCCCCCCCOC[C@H]1NC[C@H](O)[C@@H]1O` here?
**A.** The Activity was 6.5%.

**Q.** And the Activity [2]?
**A.** Its Activity is 42.1%.

**Q.** What about the Activity [3] of the same compound?
**A.** The Activity was 4.4%.

**Q.** And the Activity [5]?
**A.** The Activity was 8.6%.

**Q.** What about the Activity [6] of the same compound?
**A.** Its Activity is 20%.

**Q.** What about the Activity [7] of the same compound?
**A.** Its Activity is “Active”.

**Q.** What about the Activity [8] of the same compound?
**A.** The Activity was 70.6%.

**Q.** What about the Activity [22] of the same compound?
**A.** The Activity was “inactive”.

**Q.** And the Activity [9]?
**A.** The Activity was 14.5%.

**Q.** And the Activity [23]?
**A.** Its Activity is “Tde”.

**Q.** And the Activity [11]?
**A.** The Activity was 23.9%.

**Q.** And the Activity [12]?
**A.** The Activity was 18.7%.

**Q.** What about the IC50 [24] of the same compound?
**A.** Its IC50 is 6 µM.

**Q.** What about the Activity [25] of the same compound?
**A.** The Activity was “Active”.

**Q.** And the IC50 [26]?
**A.** The IC50 was 3 µM.

**Q.** And the Activity [13]?
**A.** The Activity was 75.7%.

**Q.** What about the Activity [27] of the same compound?
**A.** The Activity was “Tde”.

**Q.** And the Activity [14]?
**A.** Its Activity is “Active”.

**Q.** What about the Activity [15] of the same compound?
**A.** The Activity was 7.9%.

**Q.** What about the IC50 [28] of the same compound?
**A.** The IC50 was 1 µM.

**Q.** And the Activity [16]?
**A.** The Activity was 13.9%.

**Q.** And the Activity [29]?
**A.** The Activity was “Active”.

**Q.** What about the IC50 [30] of the same compound?
**A.** Its IC50 is 2 µM.

**Q.** And the Activity [17]?
**A.** The Activity was “Active”.

**Q.** And the Activity [31]?
**A.** The Activity was “Active”.

**Q.** And the Activity [32]?
**A.** The Activity was “Tde”.

**Q.** What about the IC50 [33] of the same compound?
**A.** Its IC50 is 9 µM.

**Q.** What about the Activity [18] of the same compound?
**A.** Its Activity is 0.71%.

**Q.** And the Activity [19]?
**A.** Its Activity is 47.46%.

**Q.** And the Activity [20]?
**A.** The Activity was 12.8%.

**Q.** And the Activity [21]?
**A.** Its Activity is 27.1%.
